Square brackets hold non-standard residues; d marks the D form. Peptide text beside a SMILES is read from it.
How the values were obtained:
[1] = tested on: mouse hot-plate test (thermal stimulus, 56° C.); assay: mouse hot-plate test; type: in vivo, mice; details: for mean increase in reaction time: female mice, hot plate at 56° C.
Method: As noted above, the compound of the formula I has analgesic activity in warm-blooded animals. […] This test is carried out as follows. Groups of three female mice each weighing 22 to 25g. are used to test each compound. Each mouse is placed on a heated thermostatically-controlled copper surface at 56° C., and the time taken to react to the thermal stimulus (for example by licking its hind paws) is recorded. Normal reaction times are in the range of 3 to 5 seconds.
Each of the three mice is then dosed intravenously with 100 mg./kg. of a solution of the test compound. At 5, 10 and 30 minutes after dosing, each mouse is again placed on the hot plate and its reaction time determined. […] In this circumstance the compound is regarded as having maximum activity at this dose.
A compound producing a mean increase in reaction time of at least three seconds is regarded as active. An active compound is then retested at lower doses.

cat = details: injected directly into the 3rd ventricle of the cat; cited from earlier work

Row | Compound | mean increase in reaction time ([1]; intravenous dose of 100 mg./kg.) | mean increase in reaction time ([1]; intravenous, 25 mg./kg.) | duration of analgesic effect ([1]; mice, intravenous, 100 mg./kg.) | signs of toxicity ([1]; mice, intravenous, 100 mg./kg.) | analgesic properties (cat)
1 | CC[C@H](C)[C@H](NC(=O)[C@H](C)NC(=O)[C@H](CC(N)=O)NC(=O)[C@H](CCCCN)NC(=O)[C@H](Cc1ccccc1)NC(=O)[C@H](CC(C)C)NC(=O)[C@@H](NC(=O)[C@@H](NC(=O)[C@H](CC(C)C)NC(=O)[C@@H]1CCCN1C(=O)[C@@H](NC(=O)[C@H](CCC(N)=O)NC(=O)[C@H](CO)NC(=O)[C@H](CCCCN)NC(=O)[C@H](CCC(=O)O)NC(=O)[C@H](CO)NC(=O)[C@@H](NC(=O)[C@H](CC(C)C)NC(=O)[C@H](Cc1ccccc1)NC(=O)CNC(=O)[C@@H](C)NC(=O)[C@@H](N)Cc1ccc(O)cc1)[C@@H](C)O)[C@@H](C)O)C(C)C)[C@@H](C)O)C(=O)N[C@H](C(=O)N[C@@H](CCCCN)C(=O)N[C@@H](CC(N)=O)C(=O)N[C@@H](C)C(=O)N[C@@H](Cc1c[nH]cn1)C(=O)N[C@@H](CCCCN)C(=O)N[C@@H](CCCCN)C(=O)NCC(=O)N[C@@H](CCC(N)=O)C(=O)O)C(C)C [Example] (H-Y[dA]GFLTSEKSQTPLVTLFKNAIVKNAHKKGQ-OH) | 15 s | 6 s | at least 3 hours | no obvious signs of toxicity | –
2 | β-endorphin: residues 61-91 of the naturally-occurring lipolytic polypeptide hormone lipotropin (C-fragment of lipotropin) (YGGFMTSEKSQTPLVTLFKNAIIKNAYKKGE; Beta-endorphin; UniProt P01189 237-267, looked up) | – | – | – | – | possesses analgesic properties

— patent publication US4320117A, “Polypeptide” (Imperial Chemical Industries Limited, priority 1976, dated 1982)
